According to patent publication US8129398B2 (priority 2008, dated 2012):

target: T1, HIV-integrase (Human immunodeficiency virus type 1 group M subtype B, UniProt P12497); assay: HIV-Integrase Inhibition Activity (SPA bead integration assay with P33 labeled target DNA); type: biochemical; details: recombinant integrase, class symbols; read-out: in vitro activity
T1 construct: Recombinant integrase (0.26 ng) was incubated with the beads
How it was run: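 Biotinylated substrate DNA on streptavidin SPA beads loaded with recombinant integrase (90 min, 37° C), washed, then inhibitor plus 0.1 fmol P33-labeled target DNA added. Reaction stopped with 10 mM EDTA; integration measured as CPM by scintillation, giving IC50 ranks.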

SMILES | IC50 [nM]
CN(C)C(=O)C(=O)NC12CCC(CC1)Cn1c2nc(C(=O)NCc2ccc(F)cc2)c(O)c1=O [Example 57, N′-(2-((4-Fluorobenzyl)carbamoyl)-3-hydroxy-4-oxo-6,7,8,9-tetrahydro-7,10-ethanopyrimido[1,2-a]azepin-10(4H)-yl)-N,N-dimethylethanediamide] | < 10
CCOC(=O)N1CCCC1C(=O)NC12CCC(CC1)Cn1c2nc(C(=O)NCc2ccc(F)cc2)c(O)c1=O (stereo not drawn) [Example 397] | < 10
O=C(NCc1ccc(F)cc1)c1nc2n(c(=O)c1O)CC1CCC2(NC(=O)[C@H]2CCCN2)CC1 [Example 252, 7,10-Ethanopyrimido[1,2-a]azepine-2-carboxamide, N-[(4-fluorophenyl)methyl]-4,6,7,8,9,10-hexahydro-3-hydroxy-4-oxo-10-[[(2R)-2-pyrrolidinylcarbonyl]amino]-] | 10 to 100
O=C(NC12CCC(CC1)Cn1c2nc(C(=O)NCc2ccc(F)cc2)c(O)c1=O)OCc1ccccc1 [Example 18, Benzyl (2-((4-fluorobenzyl)carbamoyl)-3-hydroxy-4-oxo-6,7,8,9-tetrahydro-7,10-ethanopyrimido[1,2-a]azepin-10(4H)-yl)carbamate] | < 10
CC(=O)Nc1cc(C(=O)NC23CCC(CC2)Cn2c3nc(C(=O)NCc3ccc(F)cc3)c(O)c2=O)ccn1 [Example 318, 7,10-Ethanopyrimido[1,2-a]azepine-2-carboxamide, 10-[[[2-(acetylamino)-4-pyridinyl]carbonyl]amino]-N-[(4-fluorophenyl)methyl]-4,6,7,8,9,10-hexahydro-3-hydroxy-4-oxo-] | < 10
CN(C)C(=O)C(=O)OCCNC12CCC(CC1)Cn1c2nc(C(=O)NCc2ccc(F)cc2)c(O)c1=O [Example 176] | 10 to 100
CN(C)C(=O)C(=O)NC12CCC(CC1)Cn1c2nc(C(=O)NCc2ccc(Cl)cc2Cl)c(O)c1=O [Example 368] | < 10
CCN(CC)C(=O)C(=O)NC12CCC(CC1)Cn1c2nc(C(=O)NCc2ccc(F)cc2)c(O)c1=O [Example 97, N,N-Diethyl-N′-(2-((4-fluorobenzyl)carbamoyl)-3-hydroxy-4-oxo-6,7,8,9-tetrahydro-7,10-ethanopyrimido[1,2-a]azepin-10(4H)-yl)ethanediamide] | < 10
NC(=S)NC12CCC(CC1)Cn1c2nc(C(=O)NCc2ccc(F)cc2)c(O)c1=O [Example 333, 7,10-Ethanopyrimido[1,2-a]azepine-2-carboxamide, 10-[(aminothioxomethyl)amino]-N-[(4-fluorophenyl)methyl]-4,6,7,8,9,10-hexahydro-3-hydroxy-4-oxo-] | < 10
O=C(NCc1ccc(F)cc1)c1nc2n(c(=O)c1O)CC1CNCC2C1 (stereo not drawn) [Example 7, 7,11-Methano-4H-pyrimido[1,2-a][1,5]diazocine-2-carboxamide, N-[(4-fluorophenyl)methyl]-6,7,8,9,10,11-hexahydro-3-hydroxy-4-oxo-] | 10 to 100
COCCN(C)C(=O)C(=O)NC12CCC(CCn3c1nc(C(=O)NCc1ccc(F)cc1)c(O)c3=O)C2 (stereo not drawn) [Example 205, Ethanediamide, N′-[2-[[[(4-fluorophenyl)methyl]amino]carbonyl]-7,8,9,10-tetrahydro-3-hydroxy-4-oxo-8,11-methano-4H-pyrimido[1,2-a]azocin-11(6H)-yl]-N-(2-methoxyethyl)-N-methyl-] | < 10
O=C(NC12CCC(CC1)Cn1c2nc(C(=O)NCc2ccc(F)cc2)c(O)c1=O)c1ccccc1 [Example 36, N-(4-Fluorobenzyl)-3-hydroxy-4-oxo-10-((phenylcarbonyl)amino)-4,6,7,8,9,10-hexahydro-7,10-ethanopyrimido[1,2-a]azepine-2-carboxamide] | < 10
COCC1(C(=O)NC23CCC(CC2)Cn2c3nc(C(=O)NCc3ccc(F)c(C)c3)c(O)c2=O)CC1 [Example 302, 7,10-Ethanopyrimido[1,2-a]azepine-2-carboxamide, N-[(4-fluoro-3-methylphenyl)methyl]-4,6,7,8,9,10-hexahydro-3-hydroxy-10-[[[1-(methoxymethyl)cyclopropyl]carbonyl]amino]-4-oxo-] | < 10
Cc1cnnn1-c1cc(F)ccc1CNC(=O)c1nc2n(c(=O)c1O)CC1CCC2(NC(=O)C(=O)N(C)C)CC1 [Example 106, N′-(2-((4-Fluoro-2-(5-methyl-1H-1,2,3-triazol-1-yl)benzyl)carbamoyl)-3-hydroxy-4-oxo-6,7,8,9-tetrahydro-7,10-ethanopyrimido[1,2-a]azepin-10(4H)-yl)-N,N-dimethylethanediamide] | 10 to 100
CO[C@H]1C[C@@H](C(=O)NC23CCC(CC2)Cn2c3nc(C(=O)NCc3ccc(F)c(C)c3)c(O)c2=O)N(C(=O)c2nccn2C)C1 [Example 298, 7,10-Ethanopyrimido[1,2-a]azepine-2-carboxamide, N-[(4-fluoro-3-methylphenyl)methyl]-4,6,7,8,9,10-hexahydro-3-hydroxy-10-[[[(2S,4S)-4-methoxy-1-[(1-methyl-1H-imidazol-2-yl)carbonyl]-2-pyrrolidinyl]carbonyl]amino]-4-oxo-] | < 10
CN(C(=O)OCc1ccccc1)C1c2nc(C(=O)NCc3ccc(F)cc3)c(O)c(=O)n2CC2CCC1C2 (stereo not drawn) [Example 8] | < 10
O=C(NC12CCC(CC1)Cn1c2nc(C(=O)NCc2ccc(F)cc2)c(O)c1=O)C(=O)N1CCN(C(=O)c2cccs2)CC1 [Example 142, N-(4-Fluorobenzyl)-3-hydroxy-4-oxo-10-((oxo(4-(2-thiophenylcarbonyl)-1-piperazinyl)acetyl)amino)-4,6,7,8,9,10-hexahydro-7,10-ethanopyrimido[1,2-a]azepine-2-carboxamide] | < 10
CN(C)C(=O)C(=O)NC12CCC(Cn3c1nc(C(=O)NCc1ccc(F)cc1)c(O)c3=O)C2 (single isomer, unassigned) [Example 411, Ethanediamide, N′-[2-[[[(4-fluorophenyl)methyl]amino]carbonyl]-6,7,8,9-tetrahydro-3-hydroxy-4-oxo-7,11-methanopyrimido[1,2-a]azepin-10(4H)-yl]-N,N-dimethyl-] | < 10
O=C(NC12CCC(CC1)Cn1c2nc(C(=O)NCc2ccc(F)cc2)c(O)c1=O)C(=O)N1CCC(F)CC1 [Example 102, N-(4-Fluorobenzyl)-10-(((4-fluoro-1-piperidinyl)(oxo)acetyl)amino)-3-hydroxy-4-oxo-4,6,7,8,9,10-hexahydro-7,10-ethanopyrimido[1,2-a]azepine-2-carboxamide] | < 10
CN(C)C(=O)C(=O)NC12COC(CCn3c1nc(C(=O)NCc1ccc(F)cc1)c(O)c3=O)C2 (stereo not drawn) [Example 218, N′-(2-((4-Fluorobenzyl)carbamoyl)-3-hydroxy-4-oxo-7,8-dihydro-4 H,6H-8,11-methanopyrimido[2,1-d][1,5]oxazocin-11(10H)-yl)-N,N-dimethylethanediamide] | < 10
CNC(=S)NC12CCC(CC1)Cn1c2nc(C(=O)NCc2ccc(F)cc2)c(O)c1=O [Example 331, 7,10-Ethanopyrimido[1,2-a]azepine-2-carboxamide, N-[(4-fluorophenyl)methyl]-4,6,7,8,9,10-hexahydro-3-hydroxy-10-[[(methylamino)thioxomethyl]amino]-4-oxo-] | < 10
CN(C)C(=O)C(=O)NC12CCC(CC1)Cn1c2nc(C(=O)NCc2cccc(-n3cncn3)c2)c(O)c1=O [Example 125, N′-(3-Hydroxy-4-oxo-2-((3-(1H-1,2,4-triazol-1-yl)benzyl)carbamoyl)-6,7,8,9-tetrahydro-7,10-ethanopyrimido[1,2-a]azepin-10(4H)-yl)-N,N-dimethylethanediamide] | < 10
Cc1ncn(C)c1C(=O)NC12CCC(CC1)Cn1c2nc(C(=O)NCc2ccc(F)cc2)c(O)c1=O [Example 243, 7,10-Ethanopyrimido[1,2-a]azepine-2-carboxamide, 10-[[(1,4-dimethyl-1H-imidazol-5-yl)carbonyl]amino]-N-[(4-fluorophenyl)methyl]-4,6,7,8,9,10-hexahydro-3-hydroxy-4-oxo-] | 10 to 100
Cc1cc(CNC(=O)c2nc3n(c(=O)c2O)CC2CCC3(NC(=O)Nc3cccnc3)CC2)ccc1F [Example 326, 7,10-Ethanopyrimido[1,2-a]azepine-2-carboxamide, N-[(4-fluoro-3-methylphenyl)methyl]-4,6,7,8,9,10-hexahydro-3-hydroxy-4-oxo-10-[[(3-pyridinylamino)carbonyl]amino]-] | < 10
O=C(O)C(=O)NC12CCC(CC1)Cn1c2nc(C(=O)NCc2ccc(F)cc2)c(O)c1=O [Example 84, ((2-((4-Fluorobenzyl)carbamoyl)-3-hydroxy-4-oxo-6,7,8,9-tetrahydro-7,10-ethanopyrimido[1,2-a]azepin-10(4H)-yl)amino) (oxo)acetic acid] | < 10
O=C(NCc1ccc(F)cc1)c1nc2n(c(=O)c1O)CC1CCC2(NC(=O)C2CCCN2C(=O)C2CC2)CC1 (stereo not drawn) [Example 407] | < 10
CC(=O)Nc1cncc(C(=O)NC23CCC(CC2)Cn2c3nc(C(=O)NCc3ccc(F)cc3)c(O)c2=O)c1 [Example 321, 7,10-Ethanopyrimido[1,2-a]azepine-2-carboxamide, 10-[[[5-(acetylamino)-3-pyridinyl]carbonyl]amino]-N-[(4-fluorophenyl)methyl]-4,6,7,8,9,10-hexahydro-3-hydroxy-4-oxo-] | < 10
CN(C)C(=O)C(=O)NC12CCC(CC1)Cn1c2nc(C(=O)NC2CCN(Cc3ccccc3)C2)c(O)c1=O (stereo not drawn) [Example 356] | > 100
C=C[C@@H]1C[C@]1(NS(C)(=O)=O)C(=O)NC12CCC(CC1)Cn1c2nc(C(=O)NCc2ccc(F)cc2)c(O)c1=O [Example 278, 7,10-Ethanopyrimido[1,2-a]azepine-2-carboxamide, 10-[[[(1R,2S)-2-ethenyl-1-[(methylsulfonyl)amino]cyclopropyl]carbonyl]amino]-N-[(4-fluorophenyl)methyl]-4,6,7,8,9,10-hexahydro-3-hydroxy-4-oxo-] | < 10
COc1cccc(CNC(=O)c2nc3n(c(=O)c2O)CC2CCC3(NC(=O)C(=O)N(C)C)CC2)c1OC [Example 381] | < 10
